Reference: patent US20220000818A1, “COMPOSITIONS FOR USE IN PREVENTING ACNE” (Nogra Pharma Limited, priority 2019, published 2022)

Columns and labels:
Type in all cases: cell-based, human
[1] = system: pAkt and pS6 (PI3K/Akt pathway) in SZ95 sebocytes; experiment: Western blot of insulin-induced pAkt and pS6 in SZ95 sebocytes; details: SZ95-SF cells, 0.1 μM insulin and 1 mM NAC-GED0507, 24 hours
Experimental: (§1) Immortalized human SZ95 sebocytes (Zouboulis et al., 1999), showing morphologic, phenotypic, and functional characteristics of normal human sebocytes, were cultured in 5% CO2 at 37° C. in Sebomed basal medium, 1% L-glutamine, 1% penicillin/streptomycin, 5 ng/mL recombinant human epidermal growth factor, and 1 mM CaCl2, with or without 10% FBS supplement. All experiments were performed at least in triplicate.
(§2) For protein extraction, cells were lysed in RIPA buffer (50 mM Tris-HCl pH 7.4, 1% Nonidet P40, 0.25% deoxycholate, 150 mM NaCl, 1 mM EDTA, 1 mM PMSF, 1 mM Na3VO4, 5 mM NaF), supplemented with a protease inhibitor cocktail (Roche, Mannheim, Germany), for 30 minutes at 4° C., then sonicated. Total cell lysates were clarified by centrifugation at 12,000 rpm for 10 minutes at 4° C. and then stored at −80° C. until analysis.
(§3) Protein levels were measured by spectrophotometry, and protein (50 μg) was loaded and resolved using an acrylamide SDS-PAGE gel, and finally transferred onto a nitrocellulose membrane (Amersham Biosciences, Milan, Italy). Protein transfer efficiency was evaluated by Ponceau S staining (Sigma-Aldrich). […] Protein levels were quantified by measuring optical density of specific bands using a UVI-TEC System (Eppendorf, Hamburg, Germany). […]

SZ95 sebocytes [2] = experiment: Metabolic activity and cell viability of SZ95 sebocytes; details: SZ95-S or SZ95-SF sebocytes exposed to NAC-GED0507
Experimental: as §1
SZ95-SF and SZ95-S sebocytes were cultured for an additional 24 hours in the presence of 0.1 μM insulin and/or 1 mM of the PPARγ modulator N-acetyl-(S)-3-(4′-aminophenyl)-2-methoxypropionic acid (“NAC-GED0507”).

[3] = system: SREBP-1, FAS, FADS-2, SCD-1, DGAT1 mRNA in SZ95 sebocytes; experiment: Real-time RT-PCR of lipidogenic gene mRNA in SZ95 sebocytes
Experimental: as §1
Total RNA was isolated using the Aurum™ Total RNA Mini kit (Bio-Rad Laboratories Srl; Milan, Italy). Total RNA quantity, purity, and the absence of ribonuclease activity were assessed by OD260/280 absorbance measurements and by agarose gel electrophoresis. Total RNA samples were stored at −80° C. until use. Following DNAse I treatment, cDNA was synthesized using a mix of oligo-dT and random primers and RevertAid™ First Strand cDNA synthesis kit (Thermo Fisher Scientific; Monza, Italy). Quantitative real time RT-PCR was performed in a total volume of 15 μL with SYBR Green PCR Master Mix (Bio-Rad Laboratories Srl) and 200 nM concentration of each primer.
Reactions were carried out in triplicate using an iQ™ 5 iCycler supplied with the iQ™ 5 Real-Time Detection System (Bio-Rad Laboratories; Hercules, Calif., USA). Melt curve analysis was performed to confirm the specificity of the amplified products. Expression of mRNA species was normalized to the expression of GAPDH mRNA by the change in the Δ cycle threshold (ΔCt) method and calculated based on 2^−Δct.
SZ95-S and SZ95-SF sebocytes were cultured for an additional 24 hours in the presence of 0.1 μM insulin and/or 1 mM NAC-GED0507.

SZ95 sebocytes [4] = experiment: GC-MS analysis of fatty acid production (lipogenesis) in SZ95 sebocytes; details: insulin and NAC-GED0507, 48 hours or 72 hours
Experimental: as §1
Lipids were extracted from SZ95 sebocytes using a modified version of the protocol described in Bligh E G and Dyer W J, J Biochem Physiol, 1959. Lipids were extracted with chloroform: methanol (2:1) solution (2×1 mL) after the addition of butylhydroxytoluene to prevent oxidation of oxygen sensitive compounds. 5 μg of methylated tricosanoic acid was added as internal standard to control the analytical performance and to calculate the relative abundance of the fatty acids detected. Organic layers were collected and evaporated under nitrogen. Dried lipid extract was dissolved in 100 μL acetone/methanol/isopropanol (40:40:20) solution and 20 μL were used for the analysis of bound fatty acids (FA).
Bound fatty acids (FA) were analyzed as FA methyl esters (FAME) obtained after derivatization. For simultaneous saponification and methylation of bound FA, 250 μL KOH solution (0.5 M) in anhydrous methanol was added to the dried extract and incubated at 37° C. for 20 minutes with constant shaking. 0.5 mL HCl (0.25 M) was added to neutralize the alkaline reaction mixture. After vortexing, 0.25 mL K2SO4 (6.7%) and 1 mL hexane:isopropanol (3:2 v/v) solution containing 0.0025% BHT were added and vortexed. After centrifugation, the lipid enriched upper phase was transferred to an Eppendorf tube and evaporated under nitrogen. The dried FAME extract was dissolved in 50 μL n-hexane and analyzed by GC-MS to establish FA profiles in the lipid extracts (Thermo-Finnigan, Waltham, Mass., USA). Chromatographic separation was carried out on a HP-FFAP capillary column (Agilent Technologies, Santa Clara, Calif., USA; crosslinked FFAP, length 50 m, film thickness 0.52 μm). Helium was used as the carrier gas. The initial GC oven temperature was 40° C. and was linearly ramped up to 240° C. at 8° C./min. The total run time was 60 min. The injector and the GC-MS transfer lines were kept at 230° C. and 250° C., respectively. Total ion chromatograms (TIC) were acquired, and areas of single peaks, corresponding to the FAME, were integrated with the qualitative analysis software. Identity of the detected FAME was verified by comparison with authentic standards and matched with library spectral data.
SZ95-SF and SZ95-S sebocytes were also cultured for 48 hours or 72 hours in the presence of insulin and NAC-GED0507.

lipoxygenase (LOX) = experiment: Lipoxygenase activity assay in SZ95 sebocyte lysates; details: SZ95-S and SZ95-SF cells, 0.1 μM insulin and NAC-GED0507
Experimental: Immortalized human SZ95 sebocytes (Zouboulis et al., 1999), showing morphologic, phenotypic, and functional characteristics of normal human sebocytes, were cultured in 5% CO2 at 37° C. in Sebomed basal medium, 1% L-glutamine, 1% penicillin/streptomycin, 5 ng/mL recombinant human epidermal growth factor, and 1 mM CaCl2, with or without 10% FBS supplement. All experiments were performed at least in triplicate. Lipoxygenase (LOX) activity was evaluated spectrophotometrically by monitoring the conversion of the LOX substrate linoleic acid (LA) to the corresponding hydroperoxy fatty acid. SZ95 sebocytes were lysed in 50 mM Tris/HCl buffer (pH 7.4) (Merck; Darmstadt, Germany) by repeated freezing in liquid nitrogen and thawing. Protein content was determined by Bradford assay using bovine serum albumin as the protein standard. Aliquots of supernatants containing 50 μg of protein were added to Tris/HCl buffer containing 200 μM LA in a final volume of 1 mL. All reactions were performed in 1-cm path length quartz cuvettes. The absorbance at 234 nm was recorded at room temperature for 10 minutes using a Lambda 25 UV/Vis spectrophotometer (Perkin-Elmer, UK). SZ95 sebocytes cultured under serum and serum-free conditions were analyzed for LOX expression. SZ95-SF sebocytes expressed slightly higher basal levels of LOX compared to SZ95-S sebocytes (data not shown). […]

SZ95 sebocytes [5] = experiment: LC-MS analysis of 5-HETE and 15-HETE in SZ95 cell media; details: SZ95-SF and SZ95-S sebocytes, insulin and NAC-GED0507
Experimental: as §1
Levels of the polyunsaturated fatty acids 5-hydroxyeicosatetraenoic acid (5-HETE) and 15-hydroxyeicosatetraenoic acid (15-HETE) in cell media were measured by HPLC\MS\MS. Chromatographic separation was carried out using an Agilent Technologies 1200 HPLC Liquid Chromatography System (Palo Alto, Calif., USA) with a Symmetry C18 column ([…], 100 mm×2.1 mm; Waters, Milford, Mass., USA) as previously reported (Furugen A et al., (2015) “Simultaneous quantification of leukotrienes and hydroxyeicosatrienoic acids in cell culture medium using liquid chromatography/tandem mass spectrometry” Biomed Chromatogr 29:1084-1093). […] For each compound to be quantified, an internal standard was selected and a linear curve was generated where the ratio of analyte standard peak area to internal standard peak area was plotted against the amount of analyte standard. The results were calculated as nM/106 cells and then reported as % variation vs control values. […]

[6] = system: IL-6 release from SZ95 sebocytes; experiment: IL-6 release ELISA in SZ95 sebocytes; details: all sebocytes (SZ95-SF and SZ95-S), 0.1 μM insulin
Experimental: as §1
SZ95 culture supernatants were collected and centrifuged to remove cell debris. Aliquots were then stored at −80° C. until use. IL-6 protein level was determined by ELISA (Life Technologies, Invitrogen; Milan, Italy), and normalized for cell number. In stratum corneum specimens, concentration of IL-1α was assessed by ELISA (Life Technologies, Invitrogen, Milan, Italy), and normalized against the total amount of soluble protein. Levels of IL-1α were reported as pg/pg protein. The results represent the average of three independent experiments performed in triplicate.
To determine the effect of insulin exposure on inflammatory cytokine release in sebocytes at different stages of differentiation, IL-6 release was measured by ELISA following exposure of SZ95-SF and SZ95-S sebocytes to 0.1 μM insulin.

[7] = system: PPARγ and EMA protein in SZ95-SF cells; experiment: Western blot of PPARγ and EMA (sebocyte differentiation) in SZ95-SF cells; details: 24 hours
Experimental: as §1, §2, §3

[8] = SZ95-SF cells, pre-treatment with NAC-GED0507

insulin-induced increase in LOX activity (lipoxygenase (LOX)): inhibited
Structure (SMILES): CO[C@@H](Cc1ccc(NC(C)=O)cc1)C(=O)O [NAC-GED0507, N-acetyl-(S)-3-(4′-aminophenyl)-2-methoxypropionic acid]
insulin-induced pAkt [1]: significant decrease
insulin-induced pS6 [1]: significant decrease
cell viability (SZ95 sebocytes [2]): No significant changes
metabolic activity (SZ95 sebocytes [2]): No significant changes
up-regulation of lipidogenic genes (SREBP-1, FAS, FADS-2, SCD-1 mRNA) observed with insulin alone ([3]; 0.1 μM insulin and 1 mM NAC-GED0507, 24 hours): significantly inhibited
DGAT1 mRNA levels (decreased by insulin) ([3]; SZ95-SF cells, 0.1 μM insulin): countered the effects of insulin exposure
insulin-stimulated FADS2 mRNA expression [3, 8]: reduced the effect
insulin-stimulated SCD1 mRNA expression [3, 8]: reduced the effect
insulin-stimulated SREBP1 mRNA expression [3, 8]: reduced the effect
production of mono-unsaturated fatty acids in response to insulin (SZ95 sebocytes [4]; SZ95-SF sebocytes): significantly inhibited
production of poly-unsaturated fatty acids in response to insulin (SZ95 sebocytes [4]; SZ95-SF sebocytes): significantly inhibited
total fatty acid synthesis stimulated by insulin (SZ95 sebocytes [4]; SZ95-SF sebocytes): significantly inhibited
inhibition of unsaturated fatty acid production in SZ95-SF in comparison to SZ95-S sebocytes (SZ95 sebocytes [4]): relatively more robust
increase in 5-HETE stimulated by insulin (SZ95 sebocytes [5]): countered the increase
increase in 15-HETE stimulated by insulin (SZ95 sebocytes [5]): countered the increase
IL-6 cytokine release [6]: significantly reduced
EMA protein expression [7]: increase
PPARγ protein expression [7]: increase
